This test concerns the target SARS‐CoV‐2 nsp10–nsp16 complex (Severe acute respiratory syndrome coronavirus 2, UniProt P0DTD1). Kind of test: nsp10–nsp16 radiometric MTase assay, IC50 determination. The format is biochemical.

For `Nc1ncnc2c1ncn2[C@@H]1O[C@H](CSCC[C@H](N)C(=O)O)[C@@H](O)[C@H]1O` [SAH, S‐adenosylhomocysteine], the IC50 (as a rule, the midpoint of a concentration-inhibition curve) stood at 2200 ± 200 nM. For the setting “radiometric assay, mean ± SD, N = 3”, the Hill slope (commonly a measure of the steepness of the concentration-response curve) was determined as 0.6 ± 0.1.
